Assay results from patent US20180087023A1, “METHOD OF PRODUCING BIOPRODUCTS” (White Dog Labs, Inc., priority 2015, published 2018).

Legend:
[1] = Single-stage extraction of 2% aqueous bioproduct solutions with extractant (Examples 1-9); type: physicochemical; details: for Raffinate Bioproduct conc. (%) / Extract Bioproduct conc. (%): 100 g of 2% aqueous solution mixed with 100 g extractant of 80% 1-butene + 20% DME; for Raffinate Bioproduct conc. (%): raffinate phase; for Extract Bioproduct conc. (%): pressure vessel, extract phase; for DC (bioproduct distribution coefficient): extract/raffinate, extractant 80% 1-butene + 20% DME, ambient temperature (Table 1); for Distribution coefficient, 100% DME: extractant 100% DME (Table 2)
Description: Extraction of various bioproducts with an extractant composed of 80% 1-butene and 20% dimethylether (DME) 100 grams (g) of aqueous solutions of various bioproducts were prepared. Bioproduct initial concentration was 2%. Each of these bioproduct aqueous solutions was extracted in a pressure vessel by mixing with 100 g of extractant composed of 80% 1-butene (the hydrocarbon) and 20% dimethylether (the oxygenated compound) at ambient temperature. The amount of formed extract and formed raffinate and the concentration (conc.) of the bioproduct in each were determined. Theses concentrations were used to calculate the bioproduct distribution coefficient (DC). Also determined was the concentration of DME in the raffinate. Table 2 compares the found distribution coefficients to those of extracting with an extractant composed of 100% DME.

[2] = Effect of DME/1-butene ratio in the extractant on n-butanol extraction (Example 10); type: physicochemical; details: after extracting 2% n-butanol solution, 1:1 w/w, room temperature
Description: Extractant to aqueous solution weight/weight ratio was 1 to 1. Distribution coefficients, extractant concentration in the raffinate and extraction yield (single stage extraction at the selected extractant/aqueous solution weight/weight ratio) were determined and are summarized in Table 3.

Question: Which “Raffinate Bioproduct conc. (%)” value ([1]; ambient temperature) does the source give for `CCCC(C)=O` [2-Pentanone] here?
Answer: Its value is 0.22%.

Question: And the “Extract Bioproduct conc. (%)” value ([1]; ambient temperature)?
Answer: The value was 1.89%.

Question: And the “DC (bioproduct distribution coefficient)” value [1]?
Answer: The value was 8.45.

Question: And the “Distribution coefficient, 100% DME” value [1]?
Answer: Its value is 5.82.

Question: Which results are given for `CCCC=O` [Butanal]?
Answer: Raffinate Bioproduct conc. (%) ([1]; ambient temperature): 0.26%; Extract Bioproduct conc. (%) ([1]; ambient temperature): 1.85%; DC (bioproduct distribution coefficient) [1]: 7.16; Distribution coefficient, 100% DME [1]: 5.11

Question: For `COC` [DME, dimethylether, reference compound], which “Raffinate DME conc. (%)” value ([1]; DME in raffinate after extracting each 2% bioproduct solution with 80% 1-butene + 20% DME, ambient temperature) is on record?
Answer: Its value is 4.5%.

Question: What about the “Wt % Extractant in Raffinate” value [2] of the same compound?
Answer: The value was 31.0%.

Question: What does the source list for `O=Cc1ccco1` [Furfural]?
Answer: Raffinate Bioproduct conc. (%) ([1]; ambient temperature): 0.46%; Extract Bioproduct conc. (%) ([1]; ambient temperature): 0.162%; DC (bioproduct distribution coefficient) [1]: 3.54; Distribution coefficient, 100% DME [1]: 3.79

Question: With `O=C1CCCO1` [Gamma Butyrolactone] as the compound, how does the “Raffinate Bioproduct conc. (%)” value ([1]; ambient temperature) read?
Answer: Its value is 0.37%.

Question: And the “Extract Bioproduct conc. (%)” value ([1]; ambient temperature)?
Answer: Its value is 0.172%.

Question: What about the “DC (bioproduct distribution coefficient)” value [1] of the same compound?
Answer: The value was 4.63.

Question: What about the “Distribution coefficient, 100% DME” value [1] of the same compound?
Answer: Its value is 3.14.

Question: What does the source list for `O=C(O)CCCC(=O)O` [Glutaric Acid]?
Answer: Raffinate Bioproduct conc. (%) ([1]; ambient temperature): 1.37%; Extract Bioproduct conc. (%) ([1]; ambient temperature): 0.56%; DC (bioproduct distribution coefficient) [1]: 0.43; Distribution coefficient, 100% DME [1]: 1.88

Question: For `CCCC(=O)OC` [Methyl Butyrate], which “Raffinate Bioproduct conc. (%)” value ([1]; ambient temperature) is on record?
Answer: The value was 0.034%.

Question: What about the “Extract Bioproduct conc. (%)” value ([1]; ambient temperature) of the same compound?
Answer: Its value is 2.12%.

Question: And the “DC (bioproduct distribution coefficient)” value [1]?
Answer: The value was 61.1.

Question: What about the “Distribution coefficient, 20% DME + 80% 1-Butene” value ([1]; extractant 20% DME + 80% 1-butene (Table 2)) of the same compound?
Answer: The value was 61.14.

Question: What about the “Distribution coefficient, 100% DME” value [1] of the same compound?
Answer: The value was 20.73.

Question: For `CCC(=O)O` [Propionic Acid], which “Raffinate Bioproduct conc. (%)” value ([1]; ambient temperature) is on record?
Answer: Its value is 0.92%.

Question: And the “Extract Bioproduct conc. (%)” value ([1]; ambient temperature)?
Answer: Its value is 1.09%.

Question: And the “DC (bioproduct distribution coefficient)” value [1]?
Answer: Its value is 1.18.

Question: What about the “Distribution coefficient, 100% DME” value [1] of the same compound?
Answer: The value was 2.27.

Question: Which results are given for `O=C(O)CCC(=O)O` [Succinic Acid]?
Answer: Raffinate Bioproduct conc. (%) ([1]; ambient temperature): 1.66%; Extract Bioproduct conc. (%) ([1]; ambient temperature): 0.22%; DC (bioproduct distribution coefficient) [1]: 0.13; Distribution coefficient, 100% DME [1]: 1.01
